Laboratory results from patent US8771965B2, “Methods and compositions involving nucleotide repeat disorders” (The Board of Regents of the University of Texas System, priority 2006, dated 2014).

Columns and labels:
Format in all cases: cell-based, human
γ-secretase = γ-secretase activity blocked in DM1 myoblasts, NOTCH1 level; conditions: pharmacological inhibition of γ-secretase
DM1 myoblasts = assay: Myogenic differentiation of treated DM1 myoblasts in differentiation media (myotubes, myogenin, MyoD)
From the text: The above findings supported the possibility that a significant amount of SKELETROPHIN remained bound with the mutant DMPK transcripts within DM1 nuclei, which results in diminished SKELETROPHIN activity in DM1. The attenuated SKELETROPHIN activity then manifests with an increase in JAGGED2 activity, leading to chronic activation of Notch signaling in DM1. Based on these findings we hypothesize that the activated Notch attenuates the ability of DM1 myoblasts to progress toward myogenic lineage, while facilitating their proliferation. To more critically test this idea, DMPK transcripts were targeted in DM1 myoblasts using siRNA and JAGGED2 and NOTCH1 expression was measured, in addition to an assessment of the cells' myogenic properties. DMPK transcripts were targeted to minimize interactions of SKELETROPHIN with CUG RNA, thereby increasing SKELETROPHIN activity. […] JAGGED2 and NOTCH1 levels were measured in the DMPK-siRNA-treated cells. […] In contrast, DM1 myoblasts treated with control siRNA formed fewer and shorter myotubes as well as basal myogenin expression under identical conditions.
Whether attenuating Notch signaling improves the myogenic potential of DM1 myoblasts was assessed. To achieve this goal, JAGGED2 was targeted in DM1 myoblasts with siRNA.
(§1) The above results support the idea that diminished SKELETROPHIN activity results in elevated Notch signaling and activated Notch impairs the efficacy of myoblast differentiation in DM1. To obtain more direct evidence for this interpretation, SKELETROPHIN was overexpressed in DM1 myoblasts and the Notch activity and their myogenic properties were assessed.
The progression of myogenesis was quantified by monitoring the expression of myogenic markers, myogenin and MyoD. […] In contrast, untreated DM1 myoblasts show reduced myogenin and MyoD even after prolonged incubation in differentiation media.

Notch signaling = assay: SKELETROPHIN overexpression in DM1 myoblasts, Notch activity
Protocol: as §1

## CC(C)C[C@H](NC(=O)[C@H](Cc1ccccc1)C[C@@H](O)[C@H](Cc1ccccc1)NC(=O)OC(C)(C)C)C(=O)N[C@@H](Cc1ccccc1)C(N)=O [L-685458]
γ-secretase
  NOTCH1 level: dose-dependent reduction
DM1 myoblasts
  MyoD expression: increase
  formation of multinucleated myotubes: higher propensity to form multi-nucleated myotubes
  myogenin expression: increase

B1: SKELETROPHIN: E3 ubiquitin ligase for Jagged2, overexpressed in DM1 myoblasts (protein, listed as Homo sapiens)
chain: MRWKCRVCLDYDLCTQCYMHNKHELAHAFDRYETAHSRPVTLSPRQGLPRIPLRGIFQGAKVVRGPDWEWGSQDGGEGKPGRVVDIRGWDVETGRSVASVTWADGTTNVYRVGHKGKVDLKCVGEAAGGFYYKDHLPRLGKPAELQRRVSADSQPFQHGDKVKCLLDTDVLREMQEGHGGWNPRMAEFIGQTGTVHRITDRGDVRVQFNHETRWTFHPGALTKALGRVGKVVKVFGDGNLRVAVAGQRWTFSPSCLVAYRPEEDANLDVAERARENKSSLSVALDKLRAQKSDPEHPGRLVVEVALGNAARALDLLRRRPEQVDTKNQGRTALQVAAYLGQVELIRLLLQARAGVDLPDDEGNTALHYAALGNQPEATRVLLSAGCRADAINSTQSTALHVAVQRGFLEVVRALCERGCDVNLPDAHSDTPLHSAISAGTGASGIVEVLTEVPNIDVTATNSQGFTLLHHASLKGHALAVRKILARARQLVDAKKEDGFTALHLAALNNHREVAQILIREGRCDVNVRNRKLQSPLHLAVQQAHVGLVPLLVDAGCSVNAEDEEGDTALHVALQRHQLLPLVADGAGGDPGPLQLLSRLQASGLPGSAELTVGAAVACFLALEGADVSYTNHRGRSPLDLAAEGRVLKALQGCAQRFRERQAGGGAAPGPRQTLGTPNTVTNLHVGAAPGPEAAECLVCSELALLVLFSPCQHRTVCEECARRMKKCIRCQVVVSKKLRPDGSEVASAAPAPGPPRQLVEELQSRYRQMEERITCPICIDSHIRLVFQCGHGACAPCGSALSACPICRQPIRDRIQIFV
DM1 myoblasts
  formation of multinucleated myotubes: a large number of these myoblasts differentiated
  myogenin expression: pronounced myogenin expressions
Notch signaling
  NOTCH1 level: significant reduction
Notch signaling; n=4, P=0.0031
  Notch signaling: significant reduction
